According to patent publication US20080200433A1, “Molecular Chaperone Function Regulator” (priority 2004, published 2008):

What was measured:
HSP70 [1] = test: Induction of HSP70 in T-47D cells (Western blot); assay type: cell-based, human; details: 10 μM, 9 hr; for HSP70 expression, Experiment 2 (T/C, %): control = 100, Experiment 2; for HSP70 expression, Experiment 1 (T/C, %): control = 100, Experiment 1
Method: (Method) T-47D cells were cultured in a 12-well plate and, at the time point when the cells grew to about 70-80%, compounds A, B, C, D, E and F were each added to 10 μM.
DMSO (0.1%) was added to the control. After the addition, the cells were collected 9 hr later and cell extracts were prepared. Expression of HSP70 protein in the cell extracts was examined by Western blot using an HSP70 specific antibody. T/C (%) was determined using the amount of chemical luminescence on a PVDF film due to an HRP-labeled secondary antibody as the HSP70 expression amount and HSP70 expression amount of the cells in the control well as 100.

ubiquitinated protein = test: Induction of ubiquitinated protein in T-47D cells (Western blot); assay type: cell-based, human; details: vs DMSO control (FIG. 7)
Method: DMSO (0.1%) was added to the control. After the addition, the cells were collected 1, 3, 6 and 24 hr later and cell extracts were prepared. Expression of ubiquitinated protein in the cell extracts was examined by Western blot using a ubiquitin specific antibody. T/C (%) was determined using the amount of chemical luminescence on a PVDF film due to an HRP-labeled secondary antibody as the ubiquitinated protein expression amount and the expression amount of the cell extract in the control well as 100.

HSP70 [2] = test: Induction of HSP70 in various human tumor-derived cells (Western blot); assay type: cell-based; details: TE-8, NCI-H520, HPAC, DU145, KPL-4, MKN-45, HL-60 and DLD-1 cells, 10 μM, 9 hr, vs DMSO control (FIG. 2)
Method: (Method) As to the induction of HSP70 by compound A, induction in various human tumor cells was examined.
TE-8 cell, NCI-H520 cell, HPAC cell, DU145 cell, KPL-4 cell, MKN-45 cell, HL-60 cell and DLD-1 cell were each were cultured in a 12-well plate.
DMSO (0.1%) was added to a control well. After the addition, the cells were collected 9 hr later and cell extracts were prepared. Expression of HSP70 protein in the tumor cell extracts was examined by Western blot using an HSP70 specific antibody.

[3] = test system: human prostate cancer-derived DU 145 cells; test: Cell growth suppression by combined hyperthermic treatment and compound (XTT); assay type: cell-based; details: 0.37-10 μM, 43° C. 4 hr vs 37° C., then 24 hr culture, XTT (FIG. 5)
Method: (Method) Using human prostate cancer-derived DU 145 cells, the effect of compound A on the cell growth suppressive action during hyperthermic treatment was examined. DU 145 cells were cultured at 1×10^4 cells/well in two 96 well plates. The next day, compound A was added to each plate to 0.37, 1.1, 3.3 and 10 μM, one plate was incubated for 4 hr in a 5% CO2 incubator set to 43° C. (heat treatment), and the other plate was incubated in the same manner for 4 hr in a 5% CO2 incubator set to 37° C. After 4 hr, the wells were washed 3 times with saline, a growth medium was added and cultured in a 5% CO2 incubator at 37° C. for 24 hr.
The cell growth activity was measured by the dye method using XTT as in Example 4. That is, after the culture, XTT was added to each well and, 4 hr later, the absorbance at 492 nm was measured.
T/C (%) was determined from the following formula with the absorbance of the control well in the plate without the heat treatment as 100.
T/C (%)=[absorbance of heat-treated control well or compound-treated well÷absorbance of control well without heat treatment]×100

[4] = test system: human breast cancer-derived MCF-7 cell; test: Suppressive effect on estradiol (E2)-dependent cell growth (XTT); assay type: cell-based; details: 10 nM E2, Day 10, XTT; compound A 0.037-3 μM, tamoxifen 0.062-5 μM (FIG. 4)
Excerpt: (Method) Using human breast cancer-derived MCF-7 cell that expresses estrogen receptor and grows in response to estradiol (E2, 17β-Estradiol, Cat. #E 1024, Sigma Ltd.), the effect of compound A on the cell growth in the presence of E2 was examined. As the control compound, tamoxifen (Cancer Res., 62, 2474-2477, 2002) (Cat. #T 9262, Sigma Ltd.) known to suppress growth of human breast cancer-derived MCF-7 cell by E2 stimulation was used. MCF-7 cells were suspended in a phenol red non-addition DME-F12 mixed medium containing 5% fetal calf serum treated with activated carbon, and cultured at 2×10^4 cells/well in a 24 well plate. […]
The cell growth activity was measured on Day 10 by the dye method using XTT.
That is, after the completion of the culture, XTT was added to each well and, after color development for 4 hr, the reaction mixture was transferred to a 96 well plate, and the absorbance at 492 nm was measured.
The suppression rate was calculated from the following formula.
Suppression rate (%)={1−[(absorbance of compound addition well in the presence of E2)−(absorbance of control well without E2 addition)]÷[(absorbance of control well in the presence of E2)−(absorbance of control well without E2 addition)]×100

[5] = test system: client proteins EGFR, HER2, ERα, AR, AKT and CDK4 of HSP90 chaperone; test: Suppressive action on HSP90 client protein expression in MCF-7 cells (Western blot); assay type: cell-based, human; details: 10 μM, 24 hr, vs DMSO control (FIG. 3)
Method: After the addition of the compound, the cells were collected and divided in two 24 hr later. Cell extracts were prepared from half the cells, and cytoplasmic fraction and nuclear fraction were prepared from the remaining half. […] Expression of client in each tumor cell extract and nuclear fraction was examined by Western blot using an antibody specific to each client.

[6] = test system: human breast cancer-derived MCF-7 implanted in nude mouse; test: Antitumor effect on human breast cancer-derived MCF-7 implanted in nude mouse; assay type: in vivo; details: 100 mg/kg orally once a day for 2 weeks, vs solvent control, Dunnett's test p<0.05 (FIG. 6)
Method: (Method) Human breast cancer-derived MCF-7 cells were subcutaneously implanted in female nude mouse purchased from CLEA Japan, Inc. The effect of compound A on the growth was examined. A 17β-estradiol solution was added dropwise to a small piece of glass microfibre filter GF/B (Whatman, #1821 05) to give a pellet (500 μg/filter). The pellet was subcutaneously implanted in the neck of female Balb/c nude mouse, and MCF-7 cells were subcutaneously implanted in the right back at 5×10^6 cells/mouse. From 7 days after the implantation, compound A was orally administered at 30 mg/kg and 100 mg/kg to nude mice (5 per group) once a day for 2 weeks.
The 0.5% tragacanth solution used as a solvent was similarly administered to the control. The next day of the final administration, the nude mice were sacrificed under anesthesia, and the subcutaneous tumor was isolated and weighed. The mean tumor weight and standard error of each group were calculated, and statistically analyzed by the Dunnett's test and using the solvent administration group as a control.

HSP70 [7] = test: Time-dependent HSP70 induction in A-431 cells (Western blot); assay type: cell-based, human; details: 10 μM, vs DMSO control (FIG. 1)
Method: DMSO (0.1%) was added to the control. After the addition, the cells were collected 6, 9, 12 and 24 hr later and cell extracts were prepared. Expression of HSP70 protein in the cell extracts was examined by Western blot using an HSP70 specific antibody. T/C (%) was determined using the amount of chemical luminescence on a PVDF film due to an HRP-labeled secondary antibody as the HSP70 expression amount and HSP70 expression amount of the cells in the control well as 100.

## C=CC(=O)Nc1cc2c(Nc3ccc(F)c(Cl)c3)ncnc2cc1C#CC(C)(C)N1CCN(CCOC)CC1 [B, N-([4-(3-Chloro-4-fluorophenyl)amino]-7-{3-[4-(2-methoxyethyl)-1-piperazinyl]-3-methyl-1-butynyl}-6-quinazolinyl)acrylamide]
HSP70 [1]
  HSP70 expression, Experiment 2 (T/C, %): 482%

## C=CC(=O)Nc1cc2c(Nc3ccc(F)c(Cl)c3)ncnc2cc1C#CCN1CCN(C)CC1 [C, N-{4-[(3-Chloro-4-fluorophenyl)amino]-7-[3-(4-methyl-1-piperazinyl)-1-propynyl]-6-quinazolinyl}acrylamide]
HSP70 [1]
  HSP70 expression, Experiment 1 (T/C, %): 207%

## C=CC(=O)Nc1cc2c(Nc3cccc(C#N)c3)ncnc2cc1C#CC(C)(C)N1CCN(C)CC1 [D, N-{4-[(3-Cyano-phenyl)amino]-7-[3-methyl-3-(4-methyl-1-piperazinyl)-1-butynyl]-6-quinazolinyl}acrylamide]
HSP70 [1]
  HSP70 expression, Experiment 2 (T/C, %): 446%

## C=CC(=O)Nc1cc2c(Nc3ccc(F)c(Cl)c3)ncnc2cc1C#CC1(N2CCN(C)CC2)CCOCC1 [E, N-{4-[(3-Chloro-4-fluorophenyl)amino]-7-[4-(4-methyl-1-piperazinyl)-4-tetrahydropyranylethynyl]-6-quinazolinyl}acrylamide]
HSP70 [1]
  HSP70 expression, Experiment 1 (T/C, %): 172%

## CCOc1cc2ncnc(Nc3ccc(F)c(Cl)c3)c2cc1C#CC(C)(C)N(C)C1CCN(C)CC1 [F, (3-Chloro-4-fluorophenyl)-(7-ethoxy-6-{3-methyl-3-[methyl-(1-methyl-4-piperidinyl)amino]-1-butynyl}-4-quinazolinyl)amine]
HSP70 [1]
  HSP70 expression, Experiment 1 (T/C, %): 141%

## CC(C)C[C@H](NC(=O)[C@H](Cc1ccccc1)NC(=O)c1cnccn1)B(O)O [bortezomib, reference compound]
Ubiquitinated protein; 3 μM, 1, 3, 6 and 24 hr
  amount of ubiquitinated protein: remarkably appeared from 3 hr after the treatment

## C=CC(=O)Nc1cc2c(Nc3ccc(F)c(Cl)c3)ncnc2cc1C#CC(C)(C)N1CCN(C)CC1 [compound A]
HSP70 [2]
  HSP70 expression: increased
[3]
  cell death due to heat shock: cell death due to heat shock is enhanced
[4]
  growth of MCF-7 cells by E2 stimulation: suppresses the growth
[5]
  expression of HSP90 client proteins: decreased expression
Ubiquitinated protein; 1 μM, 1, 3, 6 and 24 hr
  amount of ubiquitinated protein: did not occur until after 24 hr
Ubiquitinated protein; 3 μM, 1, 3, 6 and 24 hr
  amount of ubiquitinated protein: increased from 6 hr after the treatment
Ubiquitinated protein; 10 μM, 1, 3, 6 and 24 hr
  amount of ubiquitinated protein: increased from 6 hr after the treatment
HSP70 [1]
  HSP70 expression, Experiment 1 (T/C, %): 299%
  HSP70 expression, Experiment 2 (T/C, %): 895%
[6]
  tumor weight: significantly decreased
HSP70 [7]; 6 hr to 12 hr after treatment
  expression of HSP70: increased in a time-dependent manner
HSP70 [7]; 24 hr after treatment
  expression of HSP70: markedly decreased

## COc1cc2ncnc(Nc3ccc(F)c(Cl)c3)c2cc1OCCCN1CCOCC1 [gefinitib, 4-(3′-Chloro-4′-fluoroanilino)-7-methoxy-6-(3-morpholinopropoxy)quinazoline, reference compound]
HSP70 [2]
  HSP70 expression: did not show a clear increase

## CC/C(=C(\c1ccccc1)c1ccc(OCCN(C)C)cc1)c1ccccc1 [tamoxifen, reference compound]
[4]
  growth of MCF-7 cells by E2 stimulation: suppresses the growth
